Assay results taken from patent US7307166B1, “Oxpurine nucleosides and their congeners, and acyl, derivatives thereof, for improvement of hematopoiesis” (Wellstat Therapeutics Corporation, priority 1987, dated 2007).

How the values were obtained:
Format in all cases: in vivo, mouse
[1] = tested on: female Balb/C mice; experiment: Survival of mice irradiated with Cobalt 60 gamma radiation; details: for number of mice surviving 30 days after irradiation over number irradiated: 50 mg/kg i.p. daily 6 days from 24 h after irradiation
[2] = tested on: female Balb/C mice; experiment: Cisplatin-induced myelosuppression; details: for survival: day 11
Procedure: A study was conducted to assess the effects of N^2,3′,5′-tripalmitoyldeoxyguanosine (PdG) in reducing the hematologic toxicity of cisplatin. Female Balb/C mice were divided into groups of five animals each per dose per time point. Half of the groups were given a series of three daily doses of PdG (25 mg/kg) by intraperitoneal injection and the other half were treated with the vehicle alone. Twenty-four hours later, the animals were given a single dose of cisplatin by intraperitoneal injection at one of four doses: 8, 11, 12 or 15 mg/kg. Blood samples were taken by retro-orbital eye bleed at four, seven and 11 days after administration of cisplatin.

[3] = tested on: female Balb/C mice; experiment: Survival after bacterial endotoxin (salmonella typhimurium LPS); details: 21-day observation; LPS 100 μg (5 mg/kg); 25 mg/kg i.p. daily 3 days prior
Procedure: In an experiment to test the effect of N^2,3′,5′-tripalmitoyldeoxyguanosine (PdG) on animals challenged by endotoxin, 42 female Balb/C mice were divided into three groups of 14 animals each. Each group was given a single 100 μg dose (5 mg/kg) of salmonella typhimurium LPS. Two of the groups were treated once per day for three days prior to receiving the LPS by intraperitoneal injection with either 25 mg/kg PdG or with vehicle alone. The third group received no pretreatment. Survival of the animals was monitored for 21 days subsequent to the LPS dose.

[4] = tested on: hematopoietic stem cells; experiment: Stem cell mobilization
[5] = day 4 after cisplatin 8 mg/kg, PdG 25 mg/kg x3 before
[6] = day 4 after cisplatin 11 mg/kg, PdG 25 mg/kg x3 before
[7] = day 4 after cisplatin 12 mg/kg, PdG 25 mg/kg x3 before
[8] = day 4 after cisplatin 15 mg/kg, PdG 25 mg/kg x3 before
[9] = day 7 after cisplatin 8 mg/kg, PdG 25 mg/kg x3 before
[10] = day 7 after cisplatin 11 mg/kg, PdG 25 mg/kg x3 before
[11] = day 7 after cisplatin 12 mg/kg, PdG 25 mg/kg x3 before
[12] = day 7 after cisplatin 15 mg/kg, PdG 25 mg/kg x3 before
[13] = day 11 after cisplatin 8 mg/kg, PdG 25 mg/kg x3 before
[14] = day 11 after cisplatin 11 mg/kg, PdG 25 mg/kg x3 before
[15] = day 11 after cisplatin 12 mg/kg, PdG 25 mg/kg x3 before
[16] = day 11 after cisplatin 15 mg/kg, PdG 25 mg/kg x3 before

SMILES: CCCCCCCCCCCCCCCC(=O)OC[C@H]1O[C@@H](n2cnc3c(=O)[nH]c(N)nc32)[C@H](O)[C@@H]1O
- number of mice surviving 30 days after irradiation over number irradiated ([1]; 725 R): 5/5
- number of mice surviving 30 days after irradiation over number irradiated ([1]; 750 R): 5/5
- survival ([1]; pretreatment prior to irradiation): improved survival

SMILES: CCCCCCCCCCCCCCCC(=O)Nc1nc2c(ncn2[C@H]2C[C@H](OC(=O)CCCCCCCCCCCCCCC)[C@@H](COC(=O)CCCCCCCCCCCCCCC)O2)c(=O)[nH]1 [PdG, 3′,5′-O-N^2-tripalmitoyl-2′-deoxyguanosine]
- effect on red blood cells ([2]; any time point): no effect
- WBC ([2]; day 4 after cisplatin 8 mg/kg, PdG 25 mg/kg i.p. 3 daily doses before): 10.2 ± 1.4 K/μL
- Lymphocytes [2, 5]: 8.0 ± 0.9 K/μL
- Neutrophils [2, 5]: 1.77 ± 0.3 K/μL
- Lymphocytes [2, 6]: 7.9 ± 1.1 K/μL
- Neutrophils [2, 6]: 3.99 ± 0.7 K/μL
- WBC [2, 6]: 7.2 ± 0.6 K/μL
- Lymphocytes [2, 7]: 5.14 ± 1.0 K/μL
- Neutrophils [2, 7]: 1.59 ± 0.3 K/μL
- WBC [2, 7]: 6.9 ± 0.9 K/μL
- Lymphocytes [2, 8]: 4.37 ± 0.61 K/μL
- Neutrophils [2, 8]: 2.69 ± 1.3 K/μL
- WBC [2, 8]: 7.1 ± 1.0 K/μL
- Lymphocytes [2, 9]: 5.38 ± 0.71 K/μL
- Neutrophils [2, 9]: 2.74 ± 0.50 K/μL
- Platelets [2, 9]: 910 ± 135 K/μL
- Lymphocytes [2, 10]: 5.44 ± 0.22 K/μL
- Neutrophils [2, 10]: 4.58 ± 0.3 K/μL
- Platelets [2, 10]: 974 ± 49 K/μL
- WBC [2, 10]: 9.4 ± 0.83 K/μL
- Lymphocytes [2, 11]: 5.14 ± 0.91 K/μL
- Neutrophils [2, 11]: 3.23 ± 0.7 K/μL
- WBC [2, 11]: 8.5 ± 0.9 K/μL
- Lymphocytes [2, 12]: 2.80 ± 0.44 K/μL
- Neutrophils [2, 12]: 4.06 ± 0.46 K/μL
- WBC [2, 12]: 7.0 ± 0.38 K/μL
- survival ([2]; 12 mg/kg cisplatin (60% of the controls had died)): All
- survival ([2]; 15 mg/kg cisplatin (all control animals dead)): three of five
- Lymphocytes [2, 13]: 7.9 ± 0.5 K/μL
- Neutrophils [2, 13]: 1.33 ± 0.32 K/μL
- Platelets [2, 13]: 994 ± 29 K/μL
- WBC [2, 13]: 9.3 ± 0.3 K/μL
- Lymphocytes [2, 14]: 7.9 ± 1.23 K/μL
- Neutrophils [2, 14]: 1.00 ± 0.37 K/μL
- Platelets [2, 14]: 968 ± 47 K/μL
- WBC [2, 14]: 8.7 ± 1.0 K/μL
- Lymphocytes [2, 15]: 5.34 ± 0.73 K/μL
- Neutrophils [2, 15]: 3.26 ± 0.48 K/μL
- Platelets [2, 15]: 738 ± 35 K/μL
- WBC [2, 15]: 8.7 ± 0.6 K/μL
- Lymphocytes [2, 16]: 7.65 ± 0.49 K/μL
- Neutrophils [2, 16]: 2.02 ± 0.68 K/μL
- Platelets [2, 16]: 657 ± 113 K/μL
- WBC [2, 16]: 9.7 ± 0.3 K/μL
- platelet counts higher than in vehicle-treated control animals ([2]; day four, cisplatin 8 mg/kg): approximately 30%
- survival [3]: All
- mobilization of stem cells ([4]; PdG alone 25 mg/kg): can induce the mobilization
- response to cyclophosphamide (stem cell mobilization) with PdG ([4]; PdG with cyclophosphamide): seven to eight-fold greater
- mobilizing stem cells in intact and splenectomized mice ([4]; with and without cyclophosphamide co-treatment): equally effective
